Eight compounds from ChEMBL document CHEMBL1201862, “PubChem BioAssay data set” (2004) can be followed below.

Holding throughout (assay): growth of human tumour cells (NCI), 48 h
Experiment [1] relates to EKVX.
The test system of experiment [2] is OVCAR-3.
Experiment [3] concerns MDA-MB-435.
Experiment [4] has as its system HT-29.
Experiment [5] concerns ACHN.
The test system of experiment [6] is RXF 393.
The test system of experiment [7] is IGROV-1.
In experiment [8] the test system is NCI/ADR-RES.
For experiment [9], the system named is UO-31.
Experiment [10] has as its system NCI-H226.
The subject of experiment [11] is HL-60.
In experiment [12] the test system is CCRF-CEM.
The subject of experiment [13] is PC-3.
The test system of experiment [14] is T47D.
The test system of experiment [15] is OVCAR-4.
The test system of experiment [16] is MDA-MB-231.
Experiment [17] concerns Malme-3M.
The subject of experiment [18] is TK-10.
The subject of experiment [19] is HCT-116.
In experiment [20] the test system is SN12C.

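In this assay, cells in 96-well plates receive the compound at five concentrations for 48 hours. Endpoints are linearly interpolated between the surrounding concentrations. GI50: concentration for 50% inhibition of growth.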 Active and inactive are the calls of the source. No stated cut-off is given here; in the data, active = GI50 up to about 1.1 µM and inactive = higher.

Take `OCC(CCc1ccccc1I)C1=CCC2(CC1)OCCO2` (stereo unspecified): the GI50 was 21.4 µM (inactive) in experiment [1]; 18.6 µM (inactive) in [2]; 15.7 µM (inactive) in experiment [3]; 18.2 µM (inactive) in experiment [4]; 28.7 µM (inactive) in experiment [5]; 14.9 µM (inactive) in experiment [6]. The GI50 in experiment [7] is 16.7 µM (inactive); in experiment [8], 20.8 µM (inactive); in experiment [9], 17.8 µM (inactive); in [10], 28.4 µM (inactive); in experiment [11], 3.53 µM (inactive); in experiment [12], 13.5 µM (inactive). Moreover, the GI50 in [13] is 22.4 µM (inactive); in experiment [14] it was 17.7 µM (inactive); in experiment [15], 18.9 µM (inactive); in experiment [16] it was 23.9 µM (inactive); in [17], 17.8 µM (inactive); in experiment [18] it was 23.5 µM (inactive).

As to `COc1ccc(N2C(=O)C(=O)N(c3ccc(/N=N\c4ccccc4)cc3)C2=S)cc1`, the GI50 was 17.9 µM (inactive) in [1]; 22.8 µM (inactive) in experiment [3]; 18.6 µM (inactive) in experiment [4]; 19 µM (inactive) in experiment [5]; 17.3 µM (inactive) in [6]; 19.3 µM (inactive) in experiment [19]. Besides, the GI50 in experiment [7] is 16.6 µM (inactive); in experiment [20], 18 µM (inactive); in experiment [8], 18.9 µM (inactive); in experiment [9], 16.3 µM (inactive); in experiment [10], 21.7 µM (inactive); in experiment [11], 47.3 µM (inactive). In addition, the GI50 in [12] was 35.1 µM (inactive); in [13] it was 17.6 µM (inactive); in [14], 18.8 µM (inactive); in experiment [15], 18.2 µM (inactive); in [16], 22.8 µM (inactive); in experiment [17], 18.5 µM (inactive). Also, the GI50 in experiment [18] is 20.7 µM (inactive).

Consider `Cc1cc(C)n(C(C)(C(=O)Cc2ccccc2)n2nc(C)cc2C)n1`, for which the GI50 in experiment [1], in [2], in experiment [3], in [4], in [5] and in [6] was > 100 µM (inactive) each time. Moreover, the GI50 in experiment [19], in experiment [7], in experiment [20], in experiment [8], in experiment [9] and in experiment [10] was > 100 µM (inactive) in each case. Moreover, the GI50 in [11], in experiment [13], in [14], in experiment [15], in experiment [16] and in experiment [17] was > 100 µM (inactive) each time. Also, the GI50 in [18] is > 100 µM (inactive).

Turning to `Cc1ccc(S(=O)(=O)NCc2cccc([N+](=O)[O-])c2)cc1`, the GI50 is > 100 µM (inactive) in experiment [1]; 72.8 µM (inactive) in experiment [2]; > 100 µM (inactive) in experiment [3]; > 100 µM (inactive) in experiment [4]; > 100 µM (inactive) in experiment [5]; > 100 µM (inactive) in experiment [6]. Further, the GI50 was > 100 µM (inactive) in experiment [19]; > 100 µM (inactive) in experiment [7]; > 100 µM (inactive) in experiment [20]; > 100 µM (inactive) in experiment [8]; > 100 µM (inactive) in [10]; 28.8 µM (inactive) in experiment [11]. Besides, the GI50 in experiment [12] was 27.8 µM (inactive); in [13] it was > 100 µM (inactive); in experiment [14] it was > 100 µM (inactive); in experiment [15], > 100 µM (inactive); in experiment [16], > 100 µM (inactive); in [17], > 100 µM (inactive). The GI50 in experiment [18] was > 100 µM (inactive).

`O=[Se](O)O`: the GI50 in [1] is 2.11 µM (inactive); in [2], 4.16 µM (inactive); in [3] it was 3.77 µM (inactive); in experiment [4], 3.17 µM (inactive); in experiment [5] it was 4 µM (inactive); in experiment [6], 3.76 µM (inactive). Further, the GI50 in experiment [19] is 2.36 µM (inactive); in [7], 0.826 µM (active); in experiment [20] it was 1.24 µM (inactive); in experiment [8], 4.57 µM (inactive); in [9], 2.95 µM (inactive); in experiment [10], 0.828 µM (active). Moreover, the GI50 was 10.4 µM (inactive) in [11]; 1.1 µM (active) in [13]; > 40 µM (inactive) in experiment [14]; 7.06 µM (inactive) in experiment [15]; 1 µM (active) in experiment [16]; 31.7 µM (inactive) in experiment [17]. Also, in experiment [18], the GI50 is 6.67 µM (inactive).

For `C[C@@]12CCC3C1C=C1C(=O)c4cc(O)ccc4C(=O)[C@]1(O2)[C@@]3(C)C=O`, the GI50 in [1] was 9.71 µM (inactive); in experiment [2], 3.72 µM (inactive); in [3] it was 3.15 µM (inactive); in experiment [4] it was 4.67 µM (inactive); in experiment [5], 7.11 µM (inactive); in experiment [6], 4.3 µM (inactive). Further, the GI50 in experiment [19] is 3.52 µM (inactive); in experiment [7], 5.55 µM (inactive); in experiment [20] it was 2.02 µM (inactive); in experiment [8] it was 9.31 µM (inactive); in [9], 4.9 µM (inactive); in [10], 12.6 µM (inactive). Besides, the GI50 was 1.42 µM (inactive) in experiment [11]; 0.977 µM (active) in [12]; 7.8 µM (inactive) in experiment [13]; 3.55 µM (inactive) in experiment [14]; 6.22 µM (inactive) in experiment [15]; 8.71 µM (inactive) in [16]. In experiment [18], the GI50 was 11.6 µM (inactive).

Consider `COc1ccc(S(=O)(=O)Nc2ccc(-c3csc(N4C(=O)/C(=C/C=C\c5ccccc5)N=C4c4ccccc4)n3)cc2)cc1Cl`, for which the GI50 in [2] is 26.7 µM (inactive); in experiment [3], 22.8 µM (inactive); in experiment [4], 56.8 µM (inactive); in experiment [5], 31.1 µM (inactive); in experiment [6] it was 22.3 µM (inactive); in experiment [19], 25.7 µM (inactive). Further, the GI50 in [7] is 19.9 µM (inactive); in experiment [20] it was 33.2 µM (inactive); in [8], 28.7 µM (inactive); in experiment [9] it was 28.3 µM (inactive); in experiment [10], 34 µM (inactive); in experiment [11], 14 µM (inactive). Moreover, the GI50 in experiment [12] is 20.1 µM (inactive); in [13], 31.3 µM (inactive); in experiment [14], 19.5 µM (inactive); in experiment [15], 25.9 µM (inactive); in experiment [16] it was 22.9 µM (inactive); in experiment [17] it was 20.2 µM (inactive). In experiment [18], the GI50 was 38.5 µM (inactive).

For the compound `COc1ccc(CCNC(=O)[C@H]2CCCC[C@@H]2CCO)cc1OC`, the GI50 in experiment [1], in [2], in experiment [3], in experiment [4], in [5] and in experiment [6] was > 100 µM (inactive) in each case. Also, the GI50 in experiment [19] is > 100 µM (inactive); in [7], > 100 µM (inactive); in [20], > 100 µM (inactive); in experiment [8], > 100 µM (inactive); in experiment [9], 54.7 µM (inactive); in experiment [10] it was > 100 µM (inactive). In addition, the GI50 in experiment [11], in experiment [12], in [13], in experiment [14], in [15] and in [16] was > 100 µM (inactive) each time. The GI50 in experiment [18] was > 100 µM (inactive).
